# Laboratory results reported in the supplement of paper PMC10307832.
# Columns and labels:
# Experiment in all cases: relative viability (nuclei count vs DMSO), 5 days (fraction); higher = more cells survive
# Daporinad = compound: O=C(/C=C/c1cccnc1)NCCCCC1CCN(C(=O)c2ccccc2)CC1 [Daporinad]
# Procedure, shortened: (§1)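 Viability is treated-well nuclei as a fraction of vehicle-well nuclei, reported as the median across plates. Before counting, lung cancer cell lines were kept overnight at 37 °C in 1536-well plates, pinned with five √10-spaced library-drug doses on vehicle-anchored plates, and left 5 days without medium change, then fixed, permeabilised and Hoechst-stained in one step, imaged at 4× and counted by MetaXpress. A plate passed only if control CV was below 25% and at least one doubling occurred.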
# R406 = compound: COc1cc(Nc2ncc(F)c(Nc3ccc4c(n3)NC(=O)C(C)(C)O4)n2)cc(OC)c1OC [R406]
# Procedure, shortened: as §1
# Daporinad + Linsitinib = compound: O=C(/C=C/c1cccnc1)NCCCCC1CCN(C(=O)c2ccccc2)CC1 [Daporinad] + C[C@]1(O)C[C@@H](c2nc(-c3ccc4ccc(-c5ccccc5)nc4c3)c3c(N)nccn32)C1 [Linsitinib] (partner 1 µM)
# Procedure, shortened: (§2)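 Lung cancer cell lines were pin-tool dosed in 1536-well plates on the day after seeding, with either a lone drug or a fixed anchor-drug dose plus five library-drug doses (not always all listed) in √10 steps. Nuclei were counted on 4× images after 5 days. Relative viability is the ratio of treated-well to vehicle-well nuclei counts, with each value a median of duplicate plates.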
# R406 + Decitabine = compound: COc1cc(Nc2ncc(F)c(Nc3ccc4c(n3)NC(=O)C(C)(C)O4)n2)cc(OC)c1OC [R406] + Nc1ncn([C@H]2C[C@H](O)[C@@H](CO)O2)c(=O)n1 [Decitabine] (partner 2 µM)
# Procedure, shortened: as §2
cell line,measurement,setting,value
UMC-11,relative viability,Daporinad; 0.0005 µM,0.963
same,relative viability,Daporinad; 0.001581 µM,1.07
same,relative viability,Daporinad; 0.005 µM,1.03
same,relative viability,Daporinad; 0.01581 µM,1.05
same,relative viability,R406; 0.08 µM,0.964
same,relative viability,R406; 0.253 µM,1.15
same,relative viability,R406; 0.8 µM,1.16
same,relative viability,R406; 2.53 µM,0.861
same,relative viability,R406; 8 µM,0.481
same,relative viability,Daporinad + Linsitinib; first compound 0.0005 µM,1.02
same,relative viability,Daporinad + Linsitinib; first compound 0.001581 µM,0.975
same,relative viability,Daporinad + Linsitinib; first compound 0.005 µM,1.1
same,relative viability,Daporinad + Linsitinib; first compound 0.01581 µM,1.03
same,relative viability,R406 + Decitabine; first compound 0.08 µM,0.618
same,relative viability,R406 + Decitabine; first compound 0.253 µM,0.703
same,relative viability,R406 + Decitabine; first compound 0.8 µM,0.75
same,relative viability,R406 + Decitabine; first compound 2.53 µM,1.34
same,relative viability,R406 + Decitabine; first compound 8 µM,0.312
